# Assay results as given in article PMC12155096 (International Journal of Molecular Sciences, 2025).
# Like-named read-outs stand apart in the source and are kept apart here.
# How the values were obtained:
# [1] = target: Photinus pyralis (firefly) luciferase (Photinus pyralis, UniProt P08659); test: biochemical; assay type: biochemical
# human CYP2C19 = human CYP2C19 (Homo sapiens, UniProt P33261)
# human CYP2D6 = human CYP2D6 (Homo sapiens, UniProt P10635)
# CYP3A4 = CYP3A4 (Homo sapiens, UniProt P08684)
# CYP3A4, sequence (P08684 whole entry): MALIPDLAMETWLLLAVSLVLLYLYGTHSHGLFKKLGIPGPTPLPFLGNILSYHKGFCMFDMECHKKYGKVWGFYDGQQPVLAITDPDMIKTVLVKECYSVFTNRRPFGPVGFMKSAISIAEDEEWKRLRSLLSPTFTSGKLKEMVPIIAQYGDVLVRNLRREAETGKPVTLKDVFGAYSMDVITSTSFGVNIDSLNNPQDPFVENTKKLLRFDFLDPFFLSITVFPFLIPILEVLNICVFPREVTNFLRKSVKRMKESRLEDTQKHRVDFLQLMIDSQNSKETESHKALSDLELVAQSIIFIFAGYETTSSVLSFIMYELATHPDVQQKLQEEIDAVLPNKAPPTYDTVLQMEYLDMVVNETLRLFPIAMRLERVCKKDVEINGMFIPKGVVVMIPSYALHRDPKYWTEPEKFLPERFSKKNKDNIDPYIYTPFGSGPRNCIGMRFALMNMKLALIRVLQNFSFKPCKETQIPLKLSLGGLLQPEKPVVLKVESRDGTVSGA
# human CYP1A2 [2] = target: T1, human CYP1A2 (Homo sapiens, UniProt P05177); test: biochemical; conditions: CYP1A2 IC50
# T1 sequence (P05177 1-516): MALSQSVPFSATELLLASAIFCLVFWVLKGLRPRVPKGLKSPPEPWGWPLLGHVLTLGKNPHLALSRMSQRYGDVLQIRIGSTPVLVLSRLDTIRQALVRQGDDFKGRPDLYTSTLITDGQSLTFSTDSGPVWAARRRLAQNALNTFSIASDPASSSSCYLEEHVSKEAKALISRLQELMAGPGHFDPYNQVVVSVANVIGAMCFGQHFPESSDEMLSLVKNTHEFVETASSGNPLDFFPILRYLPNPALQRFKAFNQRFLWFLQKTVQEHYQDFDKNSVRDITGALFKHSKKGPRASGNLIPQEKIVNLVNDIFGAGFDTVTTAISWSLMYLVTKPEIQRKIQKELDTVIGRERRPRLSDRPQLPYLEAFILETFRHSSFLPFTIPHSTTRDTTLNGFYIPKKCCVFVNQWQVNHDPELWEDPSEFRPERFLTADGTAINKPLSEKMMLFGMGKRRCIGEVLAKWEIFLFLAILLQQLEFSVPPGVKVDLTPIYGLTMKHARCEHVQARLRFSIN
# human CYP2C9 [3] = target: T2, human CYP2C9 (Homo sapiens, UniProt P11712); test: biochemical; conditions: CYP2C9 IC50
# T2 sequence (P11712 whole entry): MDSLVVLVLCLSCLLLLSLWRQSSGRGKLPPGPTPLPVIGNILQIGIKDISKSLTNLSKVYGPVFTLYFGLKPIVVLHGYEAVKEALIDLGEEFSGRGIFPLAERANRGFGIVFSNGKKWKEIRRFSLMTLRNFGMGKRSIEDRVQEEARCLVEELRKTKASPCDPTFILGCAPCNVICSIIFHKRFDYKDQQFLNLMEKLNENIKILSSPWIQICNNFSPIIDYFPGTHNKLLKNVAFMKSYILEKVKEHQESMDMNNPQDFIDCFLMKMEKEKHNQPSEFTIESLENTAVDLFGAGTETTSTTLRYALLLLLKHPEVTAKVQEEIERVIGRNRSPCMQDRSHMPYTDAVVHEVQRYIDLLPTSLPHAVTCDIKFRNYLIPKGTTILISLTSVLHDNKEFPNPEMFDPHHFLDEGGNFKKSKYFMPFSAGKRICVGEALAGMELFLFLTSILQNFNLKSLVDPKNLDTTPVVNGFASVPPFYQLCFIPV
# human CYP1A2 [4] = target: T1, human CYP1A2
# human CYP2C9 [5] = target: T2, human CYP2C9
# [6] = read-out: Luciferase IC50 (half-maximal inhibitory concentration)
# Photinus pyralis (firefly) luciferase, sequence (P08659 whole entry): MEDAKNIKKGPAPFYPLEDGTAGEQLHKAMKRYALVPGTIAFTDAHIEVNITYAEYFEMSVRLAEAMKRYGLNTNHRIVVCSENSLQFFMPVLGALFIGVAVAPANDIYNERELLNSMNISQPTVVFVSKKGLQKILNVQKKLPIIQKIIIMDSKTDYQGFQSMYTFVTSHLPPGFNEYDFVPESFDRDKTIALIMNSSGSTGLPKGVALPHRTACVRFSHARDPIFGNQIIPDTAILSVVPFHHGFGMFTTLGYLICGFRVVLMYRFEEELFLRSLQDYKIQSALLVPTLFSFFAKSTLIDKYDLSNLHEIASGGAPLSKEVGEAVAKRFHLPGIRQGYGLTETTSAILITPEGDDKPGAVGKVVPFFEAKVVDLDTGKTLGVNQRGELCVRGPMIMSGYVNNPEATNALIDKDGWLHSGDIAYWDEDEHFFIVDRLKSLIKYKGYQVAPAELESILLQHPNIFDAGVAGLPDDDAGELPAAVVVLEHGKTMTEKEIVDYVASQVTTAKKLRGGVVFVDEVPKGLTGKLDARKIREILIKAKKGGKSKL
# human CYP2D6, sequence (P10635 whole entry): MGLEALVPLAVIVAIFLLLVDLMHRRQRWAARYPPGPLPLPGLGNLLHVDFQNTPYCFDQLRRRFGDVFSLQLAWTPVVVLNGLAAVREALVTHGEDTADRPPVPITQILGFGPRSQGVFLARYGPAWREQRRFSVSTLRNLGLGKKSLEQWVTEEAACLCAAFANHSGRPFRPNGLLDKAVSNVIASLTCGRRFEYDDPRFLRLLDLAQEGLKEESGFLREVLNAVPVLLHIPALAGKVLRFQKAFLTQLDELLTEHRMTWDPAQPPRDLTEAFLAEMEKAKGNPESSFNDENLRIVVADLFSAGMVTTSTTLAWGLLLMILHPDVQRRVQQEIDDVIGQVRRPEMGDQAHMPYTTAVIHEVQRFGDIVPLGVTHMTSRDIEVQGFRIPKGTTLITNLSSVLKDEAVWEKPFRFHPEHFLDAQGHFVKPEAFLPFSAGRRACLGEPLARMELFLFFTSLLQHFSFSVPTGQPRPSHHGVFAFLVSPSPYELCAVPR
# human CYP2C19, sequence (P33261 whole entry): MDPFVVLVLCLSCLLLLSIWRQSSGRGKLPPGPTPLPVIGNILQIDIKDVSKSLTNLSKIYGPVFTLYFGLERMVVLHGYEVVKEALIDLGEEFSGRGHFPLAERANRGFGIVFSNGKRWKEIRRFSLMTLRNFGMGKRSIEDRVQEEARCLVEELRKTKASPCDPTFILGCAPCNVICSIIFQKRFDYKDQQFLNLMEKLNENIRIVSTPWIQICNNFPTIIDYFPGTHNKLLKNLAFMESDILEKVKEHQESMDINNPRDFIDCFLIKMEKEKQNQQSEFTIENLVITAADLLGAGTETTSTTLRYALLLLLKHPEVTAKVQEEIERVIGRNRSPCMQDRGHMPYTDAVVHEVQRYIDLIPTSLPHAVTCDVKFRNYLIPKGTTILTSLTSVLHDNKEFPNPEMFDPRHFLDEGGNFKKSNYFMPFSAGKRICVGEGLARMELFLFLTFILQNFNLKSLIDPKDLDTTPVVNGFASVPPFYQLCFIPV
Molecule,IC50 (human CYP1A2 [4]) [µM],CYP2C9 Efficacy (in parenthesis) (human CYP2C9 [5]),IC50 (human CYP2C9 [5]) [µM],CYP2C19 Efficacy (in parenthesis) (human CYP2C19),IC50 (human CYP2C19) [µM],CYP2D6 Efficacy (in parenthesis) (human CYP2D6),CYP3A4 Efficacy (in parenthesis) (CYP3A4),IC50 (CYP3A4) [µM],Luciferase IC50 (half-maximal inhibitory concentration) [1],IC50 (human CYP2D6) [µM],further results
c1ccc2c(c1)cc1ccc3cccc4ccc2c1c34 [Benzo(a)pyrene],–,–,–,–,–,–,–,–,–,–,IC50 [1]: 16.4 µM; CYP2C19 IC50 (human CYP2C19): Inactive; CYP2D6 IC50 (human CYP2D6): Inactive; CYP3A4 IC50 (CYP3A4): Inactive; IC50 (human CYP1A2 [2]): 0.3 µM; IC50 (human CYP2C9 [3]): 23.4 µM
"O=C(Nc1ccccc1SSc1ccccc1NC(=O)c1ccccc1)c1ccccc1 [2,2'-Dibenzoylaminodiphenyl disulfide]",6.73,0.57 ± 0.07 (-99 ± 3) %,0.57,3.94 ± 2.15 (-155 ± 9) %,3.94,37.5 ± 45.35 (15 ± 47) %,3.23 ± 1.25 (-75 ± 7) %,3.23,–,–,"Luciferase Efficacy (in parenthesis) [1]: 3.42 ± 1.53 (-57 ± 5) %; IC50 [1, 6]: 3.42 µM; CYP1A2 Efficacy (in parenthesis) (human CYP1A2 [4]): 6.73 ± 1.52 (-88 ± 2) %; CYP2D6 IC50 (half-maximal inhibitory concentration) (human CYP2D6): 37.5 ± 45.35 (15 ± 47) µM"
CNC(C)Cc1ccc2c(c1)OCO2.Cl (stereo not drawn),–,–,–,–,–,–,–,–,Inactive,0.4,CYP1A2 IC50 (half-maximal inhibitory concentration) (human CYP1A2 [4]): Inactive; CYP2C9 IC50 (half-maximal inhibitory concentration) (human CYP2C9 [5]): Inactive; CYP2C19 IC50 (half-maximal inhibitory concentration) (human CYP2C19): Inactive; CYP3A4 IC50 (half-maximal inhibitory concentration) (CYP3A4): Inactive
NNc1nc(-c2ccccc2)cs1 [2-Hydrazino-4-phenylthiazole],0.75,–,8.86,–,8.06,–,–,14,–,53.2,IC50 ([1]; read-out: Luciferase IC50): 33.9 µM
Trimethylolpropane ethoxylate triacrylate,54.5,22.42 ± 6.63 (-90 ± 14) %,22.4,20.46 ± 7.7 (-131 ± 32) %,20.5,68.92 ± 8.79 (-43 ± 5) %,0.9 ± 0.43 (-82 ± 18) %,0.9,Inactive,68.9,CYP1A2 Efficacy (in parenthesis) (human CYP1A2 [4]): 54.51 ± 3.69 (-43 ± 8) %
"Cc1cc(-c2cc(C)c(N)c(C)c2)cc(C)c1N [3,3',5,5'-Tetramethylbenzidine]",0.24,–,21.2,–,12.1,–,–,28.1,–,16.2,Luciferase IC50 [1]: Inactive
CCC(COC(=O)c1cc(OC)c(OC)c(OC)c1)(c1ccccc1)N(C)C.O=C(O)/C=C\C(=O)O (stereo not drawn) [Trimebutine maleate],–,–,15.5,–,30.3,–,–,4.07,Inactive,0.67,CYP1A2 IC50 (half-maximal inhibitory concentration) (human CYP1A2 [4]): Inactive
CC(=O)[O][Sn]([c]1ccccc1)([c]1ccccc1)[c]1ccccc1 [Triphenyltin acetate],47.5,–,1.36,–,4.84,–,–,8.45,–,0.81,IC50 ([1]; read-out: Luciferase IC50): 3.81 µM
Cc1cccc2c1cc1ccc3cccc4ccc2c1c34 [7-Methylbenzo(a)pyrene],0.16,–,–,–,–,–,–,–,–,–,Luciferase IC50 [1]: Inactive; AC50 (human CYP1A2 [4]): 0.16 µM; CYP2C9 IC50 (human CYP2C9 [5]): Inactive; CYP2C19 IC50 (human CYP2C19): Inactive; CYP2D6 IC50 (human CYP2D6): Inactive; AC50 (CYP3A4): 73 µM; CYP3A4 IC50 (CYP3A4): 72.98 ± 8.39 (145 ± 22) µM
OC(c1ccc(Cl)cc1)(c1ccc(Cl)cc1)c1cccnc1 [Parinol],38.5,0.4 ± 0.05 (-109 ± 9) %,0.4,0.08 ± 0.01 (-151 ± 12) %,0.08,14.17 ± 5.05 (-105 ± 7) %,2.75 ± 0.47 (-69 ± 3) %,2.75,Inactive,14.2,CYP1A2 Efficacy (in parenthesis) (human CYP1A2 [4]): 38.47 ± 2.51 (-60 ± 13) %
Cc1cc(CCC(=O)OCCOCCOCCOC(=O)CCc2cc(C)c(O)c(C(C)(C)C)c2)cc(C(C)(C)C)c1O,–,0.55 ± 0.06 (-101 ± 5) %,0.55,4.01 ± 1.12 (-130 ± 10) %,4.01,9.78 ± 0 (-91 ± 3) %,2.56 ± 0.17 (-86 ± 4) %,2.56,Inactive,9.78,CYP1A2 IC50 (half-maximal inhibitory concentration) (human CYP1A2 [4]): Inactive
CCNc1nc(Cl)nc(NC(C)(C)C)n1 [Terbutylazine],10.8,–,0.62,–,31.2,–,–,–,–,–,Luciferase IC50 [1]: Inactive; CYP2D6 IC50 (human CYP2D6): Inactive; CYP3A4 IC50 (CYP3A4): Inactive
CC(=O)[O-].CC(=O)[O-].[Hg+2] [Mercury(II) acetate],4.19,0.5 ± 0.06 (-104 ± 2) %,0.5,0.91 ± 0.47 (-137 ± 5) %,0.91,1.08 ± 0.07 (-72 ± 4) %,2.86 ± 0.53 (-93 ± 1) %,2.86,–,1.08,"Luciferase Efficacy (in parenthesis) [1]: 6.84 ± 0.45 (-85 ± 7) %; IC50 [1, 6]: 6.84 µM; CYP1A2 Efficacy (in parenthesis) (human CYP1A2 [4]): 4.19 ± 0.75 (-100 ± 9) %"
CC(=O)CCc1ccc2c(c1)OCO2 [Piperonyl acetone],0.75,–,–,–,29.9,–,–,18.5,Inactive,–,CYP2C9 Efficacy (human CYP2C9 [5]): 22.26 ± 9.54 (-102 ± 10) %; CYP2D6 Efficacy (human CYP2D6): 44.96 ± 16.37 (-42 ± 9) %
N#Cc1cc2ccccc2c2ccccc12 [9-Cyanophenanthrene],0.06,–,39.3,–,29.3,–,–,–,–,–,IC50 ([1]; read-out: Luciferase IC50): 62.4 µM; CYP2D6 IC50 (human CYP2D6): Inactive; CYP3A4 IC50 (CYP3A4): Inactive
CC(=O)OC1(c2ccccc2)CCN(CCc2ccccc2)CC1,–,–,53.2,–,36.6,–,–,–,Inactive,0.57,CYP1A2 IC50 (half-maximal inhibitory concentration) (human CYP1A2 [4]): Inactive; AC50 (human CYP2C9 [5]): 53.2 µM; AC50 (human CYP2C19): 36.6 µM; CYP2D6 Efficacy (human CYP2D6): 0.57 ± 0.14 (-105 ± 2) %; AC50 (CYP3A4): 40.9 µM; CYP3A4 IC50 (half-maximal inhibitory concentration) (CYP3A4): 40.89 ± 0 (145 ± 9) µM
C=CC(=O)OCC(CO)(COCC(COC(=O)C=C)(COC(=O)C=C)COC(=O)C=C)COC(=O)C=C [Dipentaerythritol pentaacrylate],–,7.3 ± 0.49 (-101 ± 2) %,7.3,8.87 ± 1.02 (-135 ± 9) %,8.87,26.69 ± 11.98 (-72 ± 6) %,0.43 ± 0.03 (-94 ± 4) %,0.43,Inactive,26.7,CYP1A2 IC50 (half-maximal inhibitory concentration) (human CYP1A2 [4]): Inactive
